Assay results published in PMC11876601 (Molecular Systems Biology, 2025).
Read-outs that look alike come from different tables or passages of the source.

How the values were obtained:
13 PDAC cell lines = experiment: Phenotypic drug combination viability screen (ATPlite, 72 h), cell line panel; type: cell-based, human; conditions: for median AUC across all cell lines: single agent, 72 h
Description: (§1) Cell viability was assessed by measuring ATP levels to indicate metabolic activity.
(§2) Afterward, small amounts were transferred to 384-well intermediate plates (Greiner Bio-One GmbH, Germany). […] For drug combination screening, 1000 to 5000 cells were seeded into 384-well plates (CulturPlate™, Perkin Elmer, MA, USA) using a Multidrop™ Combi Reagent Dispenser (Thermo Scientific, MA, USA) in 50 µl medium per well 24 h prior to drug treatment (seeding densities see Appendix Table S1). […] The final DMSO concentration in each well was 0.2%. […] Eight wells per plate without library drug served as negative controls, and sixteen wells per plate containing 5 µM Staurosporine served as positive controls. Control plates not containing any drug were used to correct for incubation effects, and data quality was assessed by calculation of Z-prime of positive and negative controls according to1 Z-prime=1−3SDpos+3SDneg/[…] where SD is the standard deviation. […] Dose–response curves from the experimental and hypothetical data were compared, and shifts in AUC were used to describe combination effects (AUC∆ = AUChypothetical − AUCexperimental). […] Only combinations with R^2 > 0.8 in both conditions were considered in the synergy analysis.

[1] = system: HPDE (immortalized pancreatic duct cell line); experiment: Drug combination viability screen (ATPlite, 72 h); type: cell-based, human;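 as to AUC: area under vehicle-normalized viability curve scaled 0 to 100 percent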
Description: as §1, §2

Capan-1 [2] = experiment: cells; parameters: ATPlite luminescence viability of PDAC cell lines, 11-dose single-agent curves, 4-parameter fit; conditions: Homo sapiens, CAPAN-1, 72 h, read-out: EC50 [nM]
How it was run: (§3)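 Drug-combination screening used cells plated at 1000 to 5000 per well one day before treatment. Final DMSO was 0.2%. Each plate held untreated negative-control wells and 5 µM staurosporine positive-control wells.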

Colo-357 [3] = experiment: cells; parameters: ATPlite luminescence viability of PDAC cell lines, 11-dose single-agent curves, 4-parameter fit; conditions: Homo sapiens, COLO357, 72 h, read-out: EC50 [nM]
How it was run: as §3

Dan-G = experiment: cells; parameters: ATPlite luminescence viability of PDAC cell lines, 11-dose single-agent curves, 4-parameter fit; conditions: 72 h, read-out: EC50 [nM]
How it was run: as §3

FAMPAC = experiment: cells; parameters: ATPlite luminescence viability of PDAC cell lines, 11-dose single-agent curves, 4-parameter fit; conditions: 72 h, read-out: EC50 [nM]
How it was run: as §3

MiaPaCa-2 = experiment: cells; parameters: ATPlite luminescence viability of PDAC cell lines, 11-dose single-agent curves, 4-parameter fit; conditions: Homo sapiens, MIA PaCa-2, 72 h, read-out: EC50 [nM]
How it was run: as §3

PSN-1 = experiment: cells; parameters: ATPlite luminescence viability of PDAC cell lines, 11-dose single-agent curves, 4-parameter fit; conditions: Homo sapiens, PSN1, 72 h, read-out: EC50 [nM]
How it was run: as §3

Suit2-07 = experiment: cells; parameters: ATPlite luminescence viability of PDAC cell lines, 11-dose single-agent curves, 4-parameter fit; conditions: 72 h, read-out: EC50 [nM]
How it was run: as §3

AsPC-1 [4] = experiment: cells; parameters: Viability of PDAC cell lines, ATPlite luminescence, 11-dose single-agent curve fit; conditions: Homo sapiens, ASPC1, 72 h, read-out: EC50 [nM]
How it was run: (§4)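 screening used cells plated at 1000 to 5000 per well one day before treatment. Final DMSO was 0.2%. Each plate held untreated negative-control wells and 5 µM staurosporine positive-control wells.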

BxPC-3 [5] = experiment: cells; parameters: Viability of PDAC cell lines, ATPlite luminescence, 11-dose single-agent curve fit; conditions: Homo sapiens, BXPC-3, 72 h, read-out: EC50 [nM]
How it was run: as §4

HPDE [6] = experiment: cells; parameters: Viability of PDAC cell lines, ATPlite luminescence, 11-dose single-agent curve fit; conditions: HPDE, 72 h, read-out: EC50 [nM]
How it was run: as §4

HuP-T4 [7] = experiment: cells; parameters: Viability of PDAC cell lines, ATPlite luminescence, 11-dose single-agent curve fit; conditions: Homo sapiens, HuP-T4, 72 h, read-out: EC50 [nM]
How it was run: as §4

PANC-1 [8] = experiment: cells; parameters: Viability of PDAC cell lines, ATPlite luminescence, 11-dose single-agent curve fit; conditions: Homo sapiens, PANC-1, 72 h, read-out: EC50 [nM]
How it was run: as §4

PaTu-8988-T [9] = experiment: cells; parameters: Viability of PDAC cell lines, ATPlite luminescence, 11-dose single-agent curve fit; conditions: Homo sapiens, PaTu 8988t, 72 h, read-out: EC50 [nM]
How it was run: as §4

Colo-357 cells = experiment: Drug combination viability screen (ATPlite, 72 h); type: cell-based, human; conditions: Bliss model
Description: as §1, §2

Capan-1 cells = experiment: Drug combination viability screen (ATPlite, 72 h); type: cell-based, human; conditions: Bliss model
Description: as §1, §2

Dan-G cells = experiment: Drug combination viability screen (ATPlite, 72 h); type: cell-based, human; conditions: Bliss model
Description: as §1, §2

AsPC-1 [10] = experiment: cells; parameters: ATPlite luminescence viability of PDAC cell lines, 11-dose single-agent curves, 4-parameter fit; conditions: Homo sapiens, ASPC1, 72 h, read-out: EC50 [nM]
How it was run: as §3

BxPC-3 [11] = experiment: cells; parameters: ATPlite luminescence viability of PDAC cell lines, 11-dose single-agent curves, 4-parameter fit; conditions: Homo sapiens, BXPC-3, 72 h, read-out: EC50 [nM]
How it was run: as §3

HPDE [12] = experiment: cells; parameters: ATPlite luminescence viability of PDAC cell lines, 11-dose single-agent curves, 4-parameter fit; conditions: HPDE, 72 h, read-out: EC50 [nM]
How it was run: as §3

PaTu-8988-T [13] = experiment: cells; parameters: ATPlite luminescence viability of PDAC cell lines, 11-dose single-agent curves, 4-parameter fit; conditions: Homo sapiens, PaTu 8988t, 72 h, read-out: EC50 [nM]
How it was run: as §3

Capan-1 [14] = experiment: cells; parameters: Viability of PDAC cell lines, ATPlite luminescence, 11-dose single-agent curve fit; conditions: Homo sapiens, CAPAN-1, 72 h, read-out: EC50 [nM]
How it was run: as §4

Colo-357 [15] = experiment: cells; parameters: Viability of PDAC cell lines, ATPlite luminescence, 11-dose single-agent curve fit; conditions: Homo sapiens, COLO357, 72 h, read-out: EC50 [nM]
How it was run: as §4

HuP-T4 [16] = experiment: cells; parameters: ATPlite luminescence viability of PDAC cell lines, 11-dose single-agent curves, 4-parameter fit; conditions: Homo sapiens, HuP-T4, 72 h, read-out: EC50 [nM]
How it was run: as §3

PANC-1 [17] = experiment: cells; parameters: ATPlite luminescence viability of PDAC cell lines, 11-dose single-agent curves, 4-parameter fit; conditions: Homo sapiens, PANC-1, 72 h, read-out: EC50 [nM]
How it was run: as §3

Compound | EC50 (Colo-357 [3]) | EC50 (MiaPaCa-2) | EC50 (PANC-1 [8]) | EC50 (AsPC-1 [10]) | EC50 (BxPC-3 [11]) | median AUC across all cell lines (13 PDAC cell lines) | EC50 (Capan-1 [2]) | EC50 (Dan-G) | EC50 (FAMPAC) | EC50 (PSN-1) | EC50 (Suit2-07) | EC50 (HuP-T4 [7]) | EC50 (HPDE [12]) | EC50 (PaTu-8988-T [13]) | also measured
CCc1cnn2c(NCc3ccc[n+]([O-])c3)cc(N3CCCC[C@H]3CCO)nc12 [Dinaciclib] | – | – | – | – | – | 40% | – | – | – | – | – | – | – | – | synergy with GEM (Bliss model, ΣAUC∆ > 10%) (13 PDAC cell lines; any of the cell lines, GEM low and GEM high): No synergy; AUC ([1]; single agent, HPDE): 38%
CO[C@H]1C[C@@H]2CC[C@@H](C)[C@@](O)(O2)C(=O)C(=O)N2CCCC[C@H]2C(=O)O[C@H]([C@H](C)C[C@@H]2CC[C@@H](OCCO)[C@H](OC)C2)CC(=O)[C@H](C)/C=C(\C)[C@@H](O)[C@@H](OC)C(=O)[C@H](C)C[C@H](C)/C=C/C=C/C=C/1C [Everolimus] | – | – | – | – | – | > 80% | – | – | – | – | – | – | – | – | synergy with GEM (Colo-357 cells): synergized; synergy with GEM (Capan-1 cells): synergized; synergy with GEM (Dan-G cells): synergized; sensitization of HPDE cells to GEM ([1]; combination with GEM): strongly sensitized
O=C(c1ccc(F)c(F)c1Nc1ccc(I)cc1F)N1CC(O)([C@@H]2CCCCN2)C1 [Cobimetinib] | 5300 nM | 6.21 nM | – | 13.7 nM | 101 nM | < 70% | 8510 nM | > 10000 nM | 39.5 nM | 12.3 nM | 752 nM | – | 4490 nM | 5570 nM | EC50 (HuP-T4 [16]): > 10000 nM; EC50 (PANC-1 [17]): > 10000 nM

Continued, in another order:

EC50 (Colo-357 [3]) | EC50 (MiaPaCa-2) | EC50 (PANC-1 [8]) | EC50 (AsPC-1 [10]) | EC50 (BxPC-3 [11]) | Compound | median AUC across all cell lines (13 PDAC cell lines) | EC50 (Capan-1 [2]) | EC50 (Dan-G) | EC50 (FAMPAC) | EC50 (PSN-1) | EC50 (Suit2-07) | EC50 (HuP-T4 [7]) | EC50 (HPDE [12]) | EC50 (PaTu-8988-T [13]) | also measured
355 nM | 825 nM | 1590 nM | – | – | Cn1ncnc1[C@H]1c2n[nH]c(=O)c3cc(F)cc(c23)N[C@@H]1c1ccc(F)cc1 [Talazoparib] | – | 507 nM | 268 nM | 693 nM | 405 nM | 113 nM | 6060 nM | – | – | number of cell lines with synergy with GEM (13 PDAC cell lines; of 13 cell lines, Bliss model): two; EC50 (AsPC-1 [4]): 2650 nM; EC50 (BxPC-3 [5]): 2960 nM; EC50 (HPDE [6]): > 10000 nM; EC50 (PaTu-8988-T [9]): > 10000 nM
– | 3.92 nM | 45.6 nM | 3.02 nM | 13.1 nM | CC(=O)Nc1cccc(-n2c(=O)n(C3CC3)c(=O)c3c(Nc4ccc(I)cc4F)n(C)c(=O)c(C)c32)c1 [Trametinib] | < 70% | – | 1.4 nM | 9.21 nM | 5.34 nM | 8.92 nM | 8.2 nM | 7 nM | 7.98 nM | EC50 (Capan-1 [14]): 88.1 nM; EC50 (Colo-357 [15]): 1160 nM
